Laboratory results as given in PubChem BioAssay (NCI).
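Cells were grown in 96-well plates and exposed to each compound for 48 hours at five concentrations; endpoints were interpolated linearly between bracketing concentrations, or set to the highest concentration if not reached. GI50 = concentration required for 50% inhibition of growth. TGI is the concentration that stops growth completely.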

Tests used:
Test in all cases: DTP human tumour cell line panel, 48 h
[1] = test system: HT29 colon
[2] = test system: SF-539 CNS
[3] = test system: MOLT-4 leukemia
[4] = test system: SK-MEL-5 melanoma
[5] = test system: SNB-75 CNS
[6] = test system: M14 melanoma
[7] = test system: NCI-H226 lung
[8] = test system: HOP-92 NSCLC
[9] = test system: T-47D breast
[10] = test system: MCF7 breast
[11] = test system: MALME-3M melanoma
[12] = test system: SK-MEL-28 melanoma
[13] = test system: NCI-H460 lung
[14] = test system: OVCAR-3 ovarian
[15] = test system: SNB-19 CNS
[16] = test system: RPMI-8226 leukemia
[17] = test system: OVCAR-4 ovarian
[18] = test system: UACC-62 melanoma
[19] = test system: U251 CNS
[20] = test system: MDA-MB-468 breast
[21] = test system: COLO 205 colon
[22] = test system: 786-0 renal
[23] = test system: NCI-H23 lung
[24] = test system: OVCAR-5 ovarian
[25] = test system: SK-MEL-2 melanoma
[26] = test system: KM12 colon
[27] = test system: IGROV1 ovarian
[28] = test system: MDA-MB-435
[29] = test system: LOX IMVI melanoma
[30] = test system: UACC-257 melanoma
[31] = test system: K-562 leukemia
[32] = test system: UO-31 renal
[33] = test system: RXF 393 renal
[34] = test system: HL-60(TB) leukemia
[35] = test system: HCC-2998 colon
[36] = test system: HOP-62 NSCLC
[37] = test system: HCT-116 colon
[38] = test system: BT-549 breast
[39] = test system: MDA-MB-231 breast
[40] = test system: SF-295 CNS
[41] = test system: NCI-H522 lung
[42] = test system: EKVX NSCLC
[43] = test system: NCI/ADR-RES ovarian
[44] = test system: A549 NSCLC
[45] = test system: PC-3 prostate
[46] = test system: SW-620 colon
[47] = test system: OVCAR-8 ovarian
[48] = test system: HS 578T breast
[49] = test system: ACHN renal
[50] = test system: DU-145 prostate
[51] = test system: CAKI-1 renal
[52] = test system: SN12C renal
[53] = test system: A498 renal
[54] = test system: HCT-15 colon
[55] = test system: TK-10 renal
[56] = test system: SK-OV-3 ovarian
[57] = test system: SF-268 CNS
[58] = test system: CCRF-CEM leukemia

COc1ccc(-c2cc(C(=O)N=Nc3c(O)[nH]c4ccc(Cl)cc34)c3ccccc3n2)cc1
GI50 [1]: 4.63 µM
TGI [1]: 31.2 µM
GI50 [2]: 15.5 µM
TGI [2]: 29.8 µM
GI50 [3]: 3.88 µM
TGI [3]: > 100 µM
GI50 [4]: 15.5 µM
TGI [4]: 30.8 µM
GI50 [5]: 12.9 µM
TGI [5]: 27.6 µM
GI50 [6]: 11 µM
TGI [6]: 41.9 µM
GI50 [7]: 14.3 µM
TGI [7]: 55.1 µM
GI50 [8]: 11.6 µM
TGI [8]: 32.9 µM
GI50 [9]: 11.8 µM
TGI [9]: 42.3 µM
GI50 [10]: 5.32 µM
TGI [10]: 28.2 µM
GI50 [11]: 14.4 µM
TGI [11]: 28.5 µM
GI50 [12]: 14.7 µM
TGI [12]: 30 µM
GI50 [13]: 11.5 µM
TGI [13]: 39.7 µM
GI50 [14]: 11.8 µM
TGI [14]: 26.4 µM
GI50 [15]: 17.4 µM
TGI [15]: 32 µM
GI50 [16]: 14.7 µM
TGI [16]: > 100 µM
GI50 [17]: 13 µM
TGI [17]: 43.3 µM
GI50 [18]: 14.8 µM
TGI [18]: 30.4 µM
GI50 [19]: 3.57 µM
TGI [19]: 16.2 µM
GI50 [20]: 6.78 µM
TGI [20]: 25.9 µM
GI50 [21]: 15 µM
TGI [21]: 35.3 µM
GI50 [22]: 19.8 µM
TGI [22]: 43.7 µM
GI50 [23]: 6.43 µM
TGI [23]: 30.8 µM
GI50 [24]: 12.2 µM
TGI [24]: 26.4 µM
GI50 [25]: 19.3 µM
TGI [25]: 35.8 µM
GI50 [26]: 21.6 µM
TGI [26]: 57.3 µM
GI50 [27]: 13.1 µM
TGI [27]: 30.1 µM
GI50 [28]: 14.8 µM
TGI [28]: 30.7 µM
GI50 [29]: 3.23 µM
TGI [29]: 13.3 µM
GI50 [30]: 16.6 µM
TGI [30]: 32.6 µM
GI50 [31]: 3.14 µM
TGI [31]: > 100 µM
GI50 [32]: 11.5 µM
TGI [32]: 24.1 µM
GI50 [33]: 12.1 µM
TGI [33]: 25.7 µM
GI50 [34]: 9.57 µM
TGI [34]: > 100 µM
GI50 [35]: 15 µM
TGI [35]: 31.4 µM
GI50 [36]: 3.96 µM
TGI [36]: 25.7 µM
GI50 [37]: 5.3 µM
TGI [37]: 63.7 µM
GI50 [38]: 22 µM
TGI [38]: 43 µM
GI50 [39]: 5.13 µM
TGI [39]: 18.1 µM
GI50 [40]: 13.7 µM
TGI [40]: 29.4 µM
GI50 [41]: 16.5 µM
TGI [41]: 39.4 µM
GI50 [42]: 11.4 µM
TGI [42]: 27.1 µM
GI50 [43]: 12 µM
TGI [43]: 47.3 µM
GI50 [44]: 5.56 µM
TGI [44]: 31.9 µM
GI50 [45]: 12 µM
TGI [45]: > 100 µM
GI50 [46]: 3.09 µM
TGI [46]: 19.4 µM
GI50 [47]: 10.2 µM
TGI [47]: 35.9 µM
GI50 [48]: 16.6 µM
TGI [48]: 69.2 µM
GI50 [49]: 10.1 µM
TGI [49]: 23.2 µM
GI50 [50]: 15.3 µM
TGI [50]: 29.7 µM
GI50 [51]: 11.7 µM
TGI [51]: 26.4 µM
GI50 [52]: 13.9 µM
TGI [52]: 32 µM
GI50 [53]: 21 µM
TGI [53]: 36.1 µM
GI50 [54]: 2.81 µM
TGI [54]: 10.2 µM
GI50 [55]: 23.9 µM
TGI [55]: 42.3 µM
GI50 [56]: 15.8 µM
TGI [56]: 33.1 µM
GI50 [57]: 16.2 µM
TGI [57]: 37.6 µM
GI50 [58]: 3.32 µM
TGI [58]: > 100 µM
